# In patent publication US20230000869A1, “NOVEL ALK2 INHIBITORS AND METHODS FOR INHIBITING BMP SIGNALING” (The Brigham and Women's Hospital, Inc., priority 2017, published 2023):
# Legend:
# ALK2 = biological target: T1, ALK2 (Mus musculus, UniProt P37172); assay: Luciferase reporter gene assay for ALK2 activity (C2C12 BRE-Luc SMAD1/5/8 reporter, BMP6 agonist); format: cell-based; settings: BMP6 50 ng/mL
# T1 construct: endogenous in cells; host or cells: C2C12-BRE (BRE-Luc reporter line, G418 selection)
# T1 sequence (P37172 21-509): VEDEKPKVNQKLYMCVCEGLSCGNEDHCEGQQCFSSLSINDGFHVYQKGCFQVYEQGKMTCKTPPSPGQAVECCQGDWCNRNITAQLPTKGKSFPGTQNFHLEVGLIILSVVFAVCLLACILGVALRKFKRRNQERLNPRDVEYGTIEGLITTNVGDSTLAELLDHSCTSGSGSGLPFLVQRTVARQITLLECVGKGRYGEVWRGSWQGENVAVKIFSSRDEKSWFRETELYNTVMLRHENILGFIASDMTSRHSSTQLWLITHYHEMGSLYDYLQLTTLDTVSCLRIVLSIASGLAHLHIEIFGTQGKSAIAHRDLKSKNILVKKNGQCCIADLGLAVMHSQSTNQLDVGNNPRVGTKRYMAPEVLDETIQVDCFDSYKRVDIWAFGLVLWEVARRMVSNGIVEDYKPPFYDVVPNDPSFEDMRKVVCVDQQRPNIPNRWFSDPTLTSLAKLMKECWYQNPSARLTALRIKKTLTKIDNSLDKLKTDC
# Experimental: (§1) All cell lines were cultured in DMEM, supplemented with […] and 1% Pen/Strep. All media reagents were obtained from Gibco. BMP6, BMP9, and TGFβ were obtained from R&D Systems. C2C12-BRE and HEK293T-SBE were kept in selection with 400 ug/mL G418 from Invivogen.
# (§2) In this reporter gene cell based ALK2 and TGFβ assay, the C2C12 cell line was employed for the measurement of ALK2 activity, using a BRE-Luc SMAD1/5/8 reporter and BMP6 as the agonist. The HEK293T cell line was employed to measure TGFβ activity, using a SBE-Luc SMAD2/3 reporter and TGFβ as the agonist. Luciferase reporter assays were read using Promega Steady-Glo Luciferase Assay System.
# (§3) Cells were plated in 96 well white clear bottom assay plates at 10 k cells/well for C2C12-BRE, 15 k cells/well for HEK293-SBE in DMEM containing 2% FBS 1% P/S. Cells were given a minimum of 4 hours in incubator at 37° C./5% CO2 to adhere prior to further treatment. Compounds were diluted in DMSO to a 10-point dilution curve and added to the plate to reach the following final concentrations: 10000, 3000, 1000, 300, 100, and 30 nM in the HEK293-SBE assay and 1000, 300, 100, 30, 10, 3, 1, 0.3 nM in the C2C12-BRE assay. Negative and positive control wells received 2 μL DMSO as vehicle treatment. Plates were returned to incubator for 45 minutes and then BMP6 and TGFB were added to a final concentration of 50 ng/mL and 5 ng/mL, respectively. Plates were returned to the incubator and left overnight. After a minimum of 18 hours post BMP6/TGFβ addition, the plates were read using Promega Steady-Glo Luciferase Assay System. A 1:1 mixture of prepared steady-glo and phenol free DMEM was prepared, and 50 μL/well was added to the assay plates whose media had been flicked off. Plates were given 10 minutes post steady-glo addition before luminescence was read on a Spectramax M5e microplate reader. Negative control wells were averaged and subtracted from all other wells on the plate. Inhibition was calculated as the percent of signal loss compared to the averaged positive control wells.
# TGFβ = assay: Luciferase reporter gene assay for TGFβ activity (HEK293T SBE-Luc SMAD2/3 reporter, TGFβ agonist); format: cell-based; settings: Homo sapiens, HEK-293T, TGFβ 5 ng/mL
# Experimental: as §1, §2, §3
Structure (SMILES),IC50 (ALK2),IC50 (TGFβ)
COc1ccc2nccc(-c3cnn4cc(N5CCC(N6CCOCC6)CC5)cnc34)c2c1 [Compound 30],37 nM,120 nM
Cc1ccc2nccc(-c3cnn4cc(N5CCC(N6CCN(C)CC6)CC5)cnc34)c2c1 [Compound 185],22 nM,514 nM
COc1cc2nccc(-c3cnn4cc(N5CCC(N6CCN(C)CC6)CC5)cnc34)c2cc1OC [Compound 17],681 nM,271 nM
COc1cc2c(-c3cnn4cc(N5CCC(N6CCN(C)CC6)C(C)C5)cnc34)ccnc2cc1F (stereo not shown) [Compound 61],> 1000 nM,> 3000 nM
Cc1cc(-c2cnn3cc(N4CC(N5CCOCC5)C4)cnc23)c2ccccc2n1 [Compound 194],221 nM,138 nM
COc1cc2c(-c3cnn4cc(N5CCN(c6nnc(C)s6)CC5)cnc34)ccnc2cc1F [Compound 204],11 nM,> 3000 nM
COc1cc2c(-c3cnn4cc(N5CCN(C6CN(C)C6)CC5)cnc34)ccnc2cc1F [Compound 199],23 nM,498 nM
Cc1cc(-c2cnn3cc(N4CCN(C5CCNCC5)CC4)cnc23)c2ccccc2n1 [Compound 23],145 nM,88 nM
COc1cc2c(-c3cnn4cc(N5CCN(c6ccnc(C)n6)CC5)cnc34)ccnc2cc1F [Compound 203],26 nM,> 3000 nM
Cc1cc(-c2cnn3cc(N4CCC(N5CCN(C)CC(F)(F)C5)CC4)cnc23)c2ccccc2n1 [Compound 207],331 nM,215 nM
COc1cc2c(-c3cnn4cc(N5CCC(N6CC7CCC(C6)N7C)CC5)cnc34)ccnc2cc1F [Compound 53],9 nM,198 nM
Cc1cc(-c2cnn3cc(N4CCOCC4)cnc23)c2ccccc2n1 [Compound 197],395 nM,623 nM
COc1ccc2nccc(-c3cnn4cc(N5CCC(N6CCN(C)CC6)CC5)cnc34)c2c1 [Compound 20],8 nM,218 nM
COc1cc2c(-c3cnn4cc(N5CCC(N(C)C)CC5)cnc34)ccnc2cc1F [Compound 188],50 nM,126 nM
COc1cc2c(-c3cnn4cc(N5CCC(N6CCN(C)CC6)CC5)cnc34)ccnc2cc1C [Compound 29],83 nM,384 nM
"COc1cc2c(-c3cnn4cc(N5CCC(N6CCN(C)CC6C)CC5)cnc34)ccnc2cc1F (stereo not shown) [Compound 58, 4-[6-[4-(2,4-dimethylpiperazin-1-yl)-1-piperidyl]pyrazolo[1,5-a]pyrimidin-3-yl]-7-fluoro-6-methoxy-quinoline]",377 nM,970 nM
CN1CCN(C2CCN(c3cnc4c(-c5ccnc6cccnc56)cnn4c3)CC2)CC1 [Compound 205],593 nM,> 3000 nM
[2H]C([2H])([2H])N1CCN(C2CCN(c3cnc4c(-c5ccnc6cc(F)c(OC)cc56)cnn4c3)CC2)CC1 [Compound 45],24 nM,376 nM
Cc1cc(-c2cnn3cc(N4CCN(c5ccncc5)CC4)cnc23)c2ccccc2n1 [Compound 27],7 nM,10 nM
COc1ccc2nccc(-c3cnn4cc(N5CCC(N6CCCN(C)CC6)CC5)cnc34)c2c1 [Compound 208],104 nM,685 nM
NC(=O)c1ccc(-c2cnn3cc(N4CCN(C5CCNCC5)CC4)cnc23)c2ccccc12 [Compound 3],13 nM,< 1 nM
CC(=O)N1CCC(N2CCN(c3cnc4c(-c5ccnc6ccccc56)cnn4c3)CC2)CC1 [Compound 81],> 3000 nM,> 3000 nM
CC(=O)N1CCC(N2CCN(c3cnc4c(-c5cc(C)nc6ccccc56)cnn4c3)CC2)CC1 [Compound 24],223 nM,56 nM
COc1cc2c(-c3cnn4cc(N5CC(N6CCN(C)CC6)C5)cnc34)ccnc2cc1F [Compound 49],11 nM,631 nM

# Next, values leading:
IC50 (ALK2),IC50 (TGFβ),Structure (SMILES)
17 nM,202 nM,CN1CCN(C2CCN(c3cnc4c(-c5ccnc6sccc56)cnn4c3)CC2)CC1 [Compound 250]
52 nM,9 nM,CN1CCN(C2CCN(c3cnc4c(-c5cc(N)nc6ccccc56)cnn4c3)CC2)CC1 [Compound 229]
153 nM,> 1000 nM,COc1cc(-c2cnn3cc(N4CCC(N5CCN(C)CC5)CC4)cnc23)ccn1 [Compound 272]
38 nM,760 nM,CS(=O)(=O)c1cccc(-c2cnn3cc(N4CCNCC4)cnc23)c1 [Compound 212]
32 nM,321 nM,COc1cc(-c2cnn3cc(N4CCC(N5CCN(C)CC5)CC4)cnc23)cc(OC)c1OC [Compound 274]
194 nM,> 1000 nM,COc1cc2c(-c3cnn4cc(N5CCC(N6CCN(C)C(=O)C6)CC5)cnc34)ccnc2cc1F [Compound 323]
> 1000 nM,> 3000 nM,CN1CCN(C2CCN(c3cnc4c(-c5ccncc5)cnn4c3)CC2)CC1 [Compound 277]
295 nM,424 nM,CN1CCN(C2CCN(c3cnc4c(-c5ccnc6cc(C#N)ccc56)cnn4c3)CC2)CC1 [Compound 263]
> 1000 nM,> 3000 nM,CN1CCN(C2CCN(c3cnc4c(-c5ccnc6cc(OC(F)(F)F)ccc56)cnn4c3)CC2)CC1 [Compound 262]
17 nM,138 nM,Cc1cc2c(-c3cnn4cc(N5CCC(N6CCN(C)CC6)CC5)cnc34)ccnc2cc1F [Compound 266]
6 nM,240 nM,CN1CCN(C2CCN(c3cnc4c(-c5cc(C#N)nc6ccccc56)cnn4c3)CC2)CC1 [Compound 237]
178 nM,723 nM,COc1cc2c(-c3cnn4cc(N5CCC(N6CCN(C)CC6)CC5)cnc34)cc[n+]([O-])c2cc1F [Compound 324]
2 nM,> 3000 nM,CN1CCN(C2CN(c3cnc4c(-c5ccncc5)cnn4c3)C2)CC1 [Compound 313]
10 nM,96 nM,COc1cc2c(-c3cnn4cc(N5CC6(CN(C)C6)C5)cnc34)ccnc2cc1F [Compound 282]
133 nM,72 nM,Cc1cc(-c2cnn3cc(N4CCC(N5CCN(C)CC5)CC4)cnc23)c2cc(F)ccc2n1 [Compound 275]
> 1000 nM,> 3000 nM,CN1CCN(C2CN(c3cnc4c(-c5cccc6c(C(N)=O)cccc56)cnn4c3)C2)CC1 [Compound 307]
13 nM,389 nM,Cc1cc(-c2cnn3cc(N4CC5(CC(N)C5)C4)cnc23)c2ccccc2n1 [Example 295]
18 nM,> 1000 nM,Cc1cc2nccc(-c3cnn4cc(N5CCC(N6CCN(C)CC6)CC5)cnc34)c2s1 [Compound 226]
> 1000 nM,> 1000 nM,CN1CCN(C2CCN(c3cnc4c(-c5ccnc(N)c5)cnn4c3)CC2)CC1 [Compound 249]
18 nM,383 nM,CN1CCN(C2CCN(c3cnc4c(-c5ccnc6cc(F)c(N)cc56)cnn4c3)CC2)CC1 [Compound 264]
159 nM,595 nM,Cc1cc2c(-c3cnn4cc(N5CC(N6CCN(C)CC6)C5)cnc34)ccnc2cc1F [Compound 308]
> 3000 nM,> 3000 nM,COc1ccc2ncc(F)c(-c3cnn4cc(N5CCC(N6CCN(C)CC6)CC5)cnc34)c2c1 [Compound 271]
70 nM,589 nM,Cc1cc2nccc(-c3cnn4cc(N5CCC(N6CCN(C)CC6)CC5)cnc34)c2cc1C [Compound 233]
28 nM,335 nM,COc1cc(-c2cnn3cc(N4CC(N5CCN(C)CC5)C4)cnc23)cc(OC)c1OC [Compound 309]
47 nM,> 2000 nM,COc1cc2c(-c3cnc4cc(N5CC(N6CCN(C)CC6)C5)cnn34)ccnc2cc1F [Compound 335]
146 nM,791 nM,COc1cc2c(-c3cnc4cc(N5CCC(N6CCN(C)CC6)CC5)cnn34)ccnc2cc1F [Compound 355]
